Patent US20100215579A1, “PHEN-NAPHTHALENE AND PHEN-QUINOLINE DERIVATIVES AND THEIR USE FOR BINDING AND IMAGING AMYLOID PLAQUES” (The Trustees of the University of Pennsylvania, priority 2007, published 2010)

Target: T1, amyloid plaques (Homo sapiens, UniProt P05067)
T1 construct: fibrillary Aβ plaques consisting predominately of aggregates of Aβ40 and Aβ42 peptides
Experiment: Ki values of Phen-Nap, Nap-Phen derivatives (Ki binding data)

T1 sequence (P05067 672-713 limits assumed): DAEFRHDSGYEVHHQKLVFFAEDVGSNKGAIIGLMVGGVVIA
T1 sequence (P05067 672-711 limits assumed): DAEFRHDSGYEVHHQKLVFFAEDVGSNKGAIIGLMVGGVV

Row | Ki | Compound
1 | 5.5 nM | CNc1ccc(-c2ccc3nc(OCCOCCOCCF)ccc3c2)cc1 [Compound 34a, 4-(2-(2-(2-(2-fluoroethoxy)ethoxy)ethoxy)quinolin-6-yl)-N-methylbenzenamine]
2 | 5 nM | CNc1ccc(-c2ccc3nc(OCCOCCOCCO)ccc3c2)cc1 [Compound 34b, 2-(2-(2-(6-(4-(methylamino)phenyl)quinolin-2-yloxy)ethoxy)ethoxy)ethanol]
